Measurements taken from patent US7943603B2, “Medical uses of a selective estrogen receptor modulator in combination with sex steroid precursors” (Endorecherche, Inc., priority 1998, dated 2011).

Tests used:
[1] = tested on: ovariectomized (OVX) nude mice supplemented with estrone; experiment: Uterine, vaginal and body weight in OVX nude mice bearing ZR-75-1 xenografts; conditions: OVX+E1 nude mice, 9.5 months
Description: A posteriori pairwise comparisons were performed using Fisher's test for least significant difference. Main effects and the interaction of treatments on body weight and organ weight were analyzed using a standard two-way ANOVA with interactions. All ANOVAs were performed using SAS program (SAS Institute, Cary, N.C., USA). Significance of differences were declared using a 2-tailed test with an overall level of 5%.

[2] = tested on: female rat; experiment: Bone mineral density (DEXA) after 9-month treatment; type: in vivo; conditions: DHEA 10 mg percutaneously, EM-800 75 μg orally, once daily, alone or in combination, 9 months
Description: Female Sprague-Dawley rats [Crl:CD(SD)Br] were obtained at 44-46 days of age from Charles River Canada Inc. (St. Constant, Quebec) and housed 2 per cage in a light (12 h light/day; lights on at 07:15 h)-and temperature (22±2° C.)-controlled environment. Animals received Purina rodent chow and tap water ad libitum. The animal studies were conducted in a Canadian Council on Animal Care (CCAC)-approved facility in agreement with the CCAC Guide for Care and Use of Experimental Animals.
(§1) The animals were randomly divided into groups each containing 20 rats with the exception of 40 animals in the control group. […] Treatment was initiated 3 days before the oral administration of DMBA. EM-800 was synthesized in the Medicinal Chemistry Division of our laboratory while DHEA was purchased from Steraloids Inc., Wilton, N.H.
Rats were anesthetized with an i.p. injection of ketamine hydrochloride and diazepam at doses of 50 and 4 mg/kg B.W., respectively. The whole skeleton and the right femur were scanned using dual energy X-ray absorptiometry (DEXA; QDR 2000-7.10C, Hologic, Waltham, Mass.) equipped with a Regional High Resolution software. The scan field sizes were 28.110×17.805 cm and 5.0×1.902 cm, the resolutions were 0.1511×0.0761 cm and 0.0254×0.0127 cm, while the scan speeds were 0.3608 and 0.0956 mm/sec for total skeleton and femur, respectively. Both bone mineral content (BMC) and bone mineral density (BMD) of total skeleton, lumbar spine, and femur were measured on the scan images of total skeleton and femur.

[3] = tested on: rat; experiment: Serum triglyceride and cholesterol levels after 9-month treatment; type: in vivo; conditions: DHEA 10 mg percutaneously, EM-800 75 μg orally, once daily, alone or in combination, 9 months
Excerpt: as §1
Twenty-four-hour urinary samples were collected at the end of the experiment from the first 9 rats of each group following transfer in metabolic cages (Allentown Caging Equipment Co., Allentown, N.J.). Two urinary samples were collected and analyzed on different days for each animal in order to minimize the influence of daily variation. Therefore, each value shown represents the mean of the two measurements performed on two different days. 0.5 ml of toluene was added into the urine collecting tubes to prevent urine evaporation and bacterial growth and the urinary volume was recorded. Trunk blood was collected at sacrifice and was allowed to clot at 4° C. overnight before centrifugation at 3000 rpm for 30 min.
Fresh samples were used for the assay of urinary creatinine, calcium, and phosphorus as well as serum total alkaline phosphatase (tALP) activity, cholesterol and triglycerides. These biochemical parameters were measured automatically with a Monarch 2000 Chemistry System (Instrumentation Laboratory Co. Lexington, Mass.) under Good Laboratory Practice conditions. Urinary hydroxyproline was measured as described (Podenphant et al., Clinica Chimica Acta 142: 145-148, 1984).

CC1=C(c2ccc(OC(=O)C(C)(C)C)cc2)[C@H](c2ccc(OCCN3CCCCC3)cc2)Oc2cc(OC(=O)C(C)(C)C)ccc21 [EM-800, (+)-7-pivaloyloxy-3-(4′-pivaloyloxyphenyl)-4-methyl-2-(4″-(2′″-piperidinoethoxy)phenyl)-2H-benzopyran]
vaginal weight ([1]; EM-800 15 μg daily): 23 ± 1 mg
uterine weight ([1]; EM-800 15 μg orally daily): 49 ± 3 mg
vaginal weight ([1]; EM-800 50 μg daily): 15 ± 1 mg
uterine weight ([1]; EM-800 50 μg orally daily): 36 ± 2 mg
vaginal weight ([1]; EM-800 100 μg daily): 11 ± 1 mg
uterine weight ([1]; EM-800 100 μg orally daily): 32 ± 1 mg
effect on body weight adjusted for tumor weight [1]: No significant effect
BMD FEMUR [2]: 0.3097 ± 0.0047 g/cm2
BMD LUMBAR SPINE [2]: 0.1888 ± 0.0045 g/cm2
BMD TOTAL SKELETON [2]: 0.1356 ± 0.0017 g/cm2
increase in BMD of femur versus control [2]: no significant change
increase in BMD of lumbar spine versus control [2]: no significant change
increase in BMD of total skeleton versus control [2]: no significant change
decrease of serum cholesterol levels [3]: 45%
decrease of serum triglyceride levels [3]: 72%
